Measured values reported in PubChem BioAssay AID720620 (The Scripps Research Institute Molecular Screening Center, 2013).
Calls of active or inactive are those of the source.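 Rule for the calls: active = at least 50% inhibition of the human mitochondrial methionine-charging enzyme at 10 µM; inactive = under 50% inhibition at 10 µM.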

Biological target: Methionine--tRNA ligase, mitochondrial (Homo sapiens) (UniProt Q96GW9)
Experiment: inhibition of human MARS2 tRNA charging – biochemical, radioactivity, [3H]methionine, two concentrations, counter-screen for T. brucei MetRS inhibitor project, late-stage follow-up (AID 720620)
Details: recombinant human mitochondrial MetRS, [3H]Met-tRNA charging, 60 min, stronger effect = higher value

Chain of Methionine--tRNA ligase, mitochondrial (Homo sapiens) (Q96GW9 whole entry, looked up): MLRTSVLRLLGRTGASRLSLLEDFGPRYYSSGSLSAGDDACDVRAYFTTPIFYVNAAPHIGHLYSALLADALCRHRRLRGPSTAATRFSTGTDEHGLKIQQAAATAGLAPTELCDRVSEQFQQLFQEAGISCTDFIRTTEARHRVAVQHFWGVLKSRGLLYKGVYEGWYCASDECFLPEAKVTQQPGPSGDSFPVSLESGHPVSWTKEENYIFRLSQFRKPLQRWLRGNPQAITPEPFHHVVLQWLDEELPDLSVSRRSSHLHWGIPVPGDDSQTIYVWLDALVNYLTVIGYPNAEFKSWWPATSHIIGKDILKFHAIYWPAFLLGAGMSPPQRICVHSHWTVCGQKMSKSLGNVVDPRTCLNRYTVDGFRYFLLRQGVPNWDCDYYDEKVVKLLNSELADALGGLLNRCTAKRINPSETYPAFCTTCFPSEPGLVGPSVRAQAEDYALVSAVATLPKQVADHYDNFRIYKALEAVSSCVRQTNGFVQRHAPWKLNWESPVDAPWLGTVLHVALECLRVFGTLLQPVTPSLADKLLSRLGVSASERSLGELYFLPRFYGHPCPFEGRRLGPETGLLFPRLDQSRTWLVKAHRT

O=C(NCCc1nc2ccccc2[nH]1)c1ccc(Cl)c([N+](=O)[O-])c1
inhibition (at 10 µM): 25.5% (inactive) | inhibition (inhibition, at 1 µM): 2.97%

COc1cccc(NC(=O)CSc2nnc3c(n2)[nH]c2ccc(C)cc23)c1
inhibition (at 10 µM): 40.4% (inactive) | inhibition (inhibition, at 1 µM): 49.7%

COc1ccccc1NS(=O)(=O)c1cccc(NC(=O)Nc2ccccc2)c1
inhibition (at 10 µM): 19.1% (inactive) | inhibition (inhibition, at 1 µM): -9.69%

CC(=O)c1ccc(N2CCN(C(=O)CCCn3c(=O)[nH]c4ccc(Br)cc4c3=O)CC2)cc1
inhibition (at 10 µM): 7.87% (inactive) | inhibition (inhibition, at 1 µM): -14.1%

CCCCCCCCCC1NC(C(=O)O)Cc2c1[nH]c1ccccc21 (stereo not drawn)
inhibition (at 10 µM): 9.9% (inactive) | inhibition (inhibition, at 1 µM): -2.41%

O=C(NNC(=O)c1ccc(-n2cncn2)c([N+](=O)[O-])c1)c1ccc(Cl)cc1
inhibition (at 10 µM): -21.4% (inactive) | inhibition (inhibition, at 1 µM): -30.3%

O=C(NCc1nc2ccccc2[nH]1)C1=C[C@@H](c2ccc3c(c2)OCO3)C[C@@H](OCCCCO)O1
inhibition (at 10 µM): -0.58% (inactive) | inhibition (inhibition, at 1 µM): -3.63%

O=C(NCc1nc2ccccc2[nH]1)C1=C[C@@H](c2ccc(Br)cc2)C[C@@H](OCCCCO)O1
inhibition (at 10 µM): 29% (inactive) | inhibition (inhibition, at 1 µM): -9.46%

CCOC(=O)N1CCC(Nc2c(Nc3ccc(F)cc3)c(=O)c2=O)CC1
inhibition (at 10 µM): -4.56% (inactive) | inhibition (inhibition, at 1 µM): -8.53%

O=C(Cn1cc(C(=O)C(=O)N2CCOCC2)c2ccccc21)Nc1cccc(C(F)(F)F)c1
inhibition (at 10 µM): -6.56% (inactive) | inhibition (inhibition, at 1 µM): -22.4%

O=C(Nc1ccc(F)c(Cl)c1)C1CC(=O)n2c(nc3ccccc32)N1 (stereo not drawn)
inhibition (at 10 µM): 4.32% (inactive) | inhibition (inhibition, at 1 µM): -11.1%

O=C(Cn1cnc2ccccc21)Nc1cccc([N+](=O)[O-])c1
inhibition (at 10 µM): -2.2% (inactive) | inhibition (inhibition, at 1 µM): -15.4%

CC(C)OCCCN1CC(=O)N2C(c3cccc([N+](=O)[O-])c3)c3[nH]c4ccccc4c3C[C@H]2C1=O (stereo partly drawn)
inhibition (at 10 µM): -3.65% (inactive) | inhibition (inhibition, at 1 µM): -24.2%

O=C(CN1CCSC1=NCc1ccccc1)c1ccc(Cl)c(Cl)c1
inhibition (at 10 µM): -25.5% (inactive) | inhibition (inhibition, at 1 µM): -25.1%

CC(=O)c1c[nH]c(C(=O)NCc2cccc(C(F)(F)F)c2)c1
inhibition (at 10 µM): 43.8% (inactive) | inhibition (inhibition, at 1 µM): -7.99%

Oc1c(Cl)cc(Cl)cc1CNc1nc2ccccc2[nH]1
inhibition (at 10 µM): 31.4% (inactive) | inhibition (inhibition, at 1 µM): -0.2%

O=C(NCc1nc2ccccc2[nH]1)C1=C[C@@H](C2CC2)C[C@@H](OCc2ccc(CO)cc2)O1
inhibition (at 10 µM): 5.87% (inactive) | inhibition (inhibition, at 1 µM): -11.4%

O=C(NCc1nc2ccccc2[nH]1)C1=C[C@H](c2ccc3c(c2)OCO3)C[C@H](OCCCCO)O1
inhibition (at 10 µM): 10.2% (inactive) | inhibition (inhibition, at 1 µM): -10.7%

O=C(NNC(=O)c1cc(-c2ccc(Cl)c(Cl)c2)nc2ccccc12)Nc1ccccc1
inhibition (at 10 µM): -11.2% (inactive) | inhibition (inhibition, at 1 µM): -17.1%

Clc1ccc(-c2nnc(SCc3nc4ccccc4[nH]3)o2)c(Cl)c1
inhibition (at 10 µM): 41.9% (inactive) | inhibition (inhibition, at 1 µM): -3.17%

O=C(CCC(=O)Nc1cccc([N+](=O)[O-])c1)NN=Cc1cccs1
inhibition (at 10 µM): -14.1% (inactive) | inhibition (inhibition, at 1 µM): -28.9%

CC(C)(C)[C@@H]1C=C(C(=O)NCc2nc3ccccc3[nH]2)O[C@H](OCc2ccc(CO)cc2)C1
inhibition (at 10 µM): -5.44% (inactive) | inhibition (inhibition, at 1 µM): -10.6%

O=C(C[C@H]1C(=O)N(Cc2ccccc2)C[C@@H]1c1ccc(Br)cc1)Nc1ccc(Br)cc1
inhibition (at 10 µM): -8.54% (inactive) | inhibition (inhibition, at 1 µM): -13%

O=C(NCc1nc2ccccc2[nH]1)C1=C[C@@H](c2ccc(Br)cc2)C[C@@H](OCc2ccc(CO)cc2)O1
inhibition (at 10 µM): 16.7% (inactive) | inhibition (inhibition, at 1 µM): -11.6%

O=C(NCc1nc2ccccc2[nH]1)C1=C[C@H](c2ccc(Br)cc2)C[C@H](OCc2ccc(CO)cc2)O1
inhibition (at 10 µM): 17.2% (inactive) | inhibition (inhibition, at 1 µM): 0.59%

O=C1CC(SCc2nc3ccccc3[nH]2)C(=O)N1c1cccc(Cl)c1 (stereo not drawn)
inhibition (at 10 µM): -0.68% (inactive) | inhibition (inhibition, at 1 µM): -4.5%

Cc1ccc(NC(=O)CN(C)C(=O)CCSc2ccc(F)cc2)cc1
inhibition (at 10 µM): -21.5% (inactive) | inhibition (inhibition, at 1 µM): -35.7%

O=C(NCc1nc2ccccc2[nH]1)C1=C[C@@H](c2ccccc2)C[C@@H](OCc2ccc(CO)cc2)O1
inhibition (at 10 µM): 15.8% (inactive) | inhibition (inhibition, at 1 µM): -16.8%

O=C1CC(N(CCc2ccccc2)C(=S)Nc2ccccc2)C(=O)N1c1ccc(Br)cc1 (stereo not drawn)
inhibition (at 10 µM): 25.6% (inactive) | inhibition (inhibition, at 1 µM): -25.5%

CN1CC(=O)N2C(c3cccc([N+](=O)[O-])c3)c3[nH]c4ccccc4c3C[C@H]2C1=O (stereo partly drawn)
inhibition (at 10 µM): 14% (inactive) | inhibition (inhibition, at 1 µM): -17.1%

COc1ccccc1-n1c(SCC(=O)Nc2ccc(Cl)cc2)nc(O)c(Cc2ccccc2)c1=O
inhibition (at 10 µM): -19.7% (inactive) | inhibition (inhibition, at 1 µM): -31.6%

CN(CC(=O)Nc1ccc(Cl)cc1)C(=O)c1ccc(-n2cncn2)c([N+](=O)[O-])c1
inhibition (at 10 µM): -19.1% (inactive) | inhibition (inhibition, at 1 µM): -36.7%

Cc1[nH]c2ccc(Br)cc2c(=O)c1CN1CCCCCC1
inhibition (at 10 µM): -11% (inactive) | inhibition (inhibition, at 1 µM): -31.2%

O=C(NCc1nc2ccccc2[nH]1)C1=C[C@H](C2CC2)C[C@H](OCc2ccc(CO)cc2)O1
inhibition (at 10 µM): 12.6% (inactive) | inhibition (inhibition, at 1 µM): 7.99%

COc1ccc(OCC(O)CNC(=O)Nc2ccc(Cl)cc2)cc1 (stereo not drawn)
inhibition (at 10 µM): 0.31% (inactive) | inhibition (inhibition, at 1 µM): -6.26%

CC(C)(C)[C@H]1C=C(C(=O)NCc2nc3ccccc3[nH]2)O[C@@H](OCc2ccc(CO)cc2)C1
inhibition (at 10 µM): 10.3% (inactive) | inhibition (inhibition, at 1 µM): -20.5%

CN(Cc1cc(Cl)cc(Cl)c1)[C@H]1C[C@H]2c3[nH]c4ccccc4c3CCN2C(=O)[C@H]1CO
inhibition (at 10 µM): 80.3% | inhibition (inhibition, at 1 µM): 14%

CCO[C@H]1OC(C(=O)NCc2nc3ccccc3[nH]2)=C[C@@H](c2ccc(Br)cc2)[C@@H]1CCCO
inhibition (at 10 µM): 11.7% (inactive) | inhibition (inhibition, at 1 µM): -15%

Clc1ccc(OCCSCc2nc3ccccc3[nH]2)cc1
inhibition (at 10 µM): -5.52% (inactive) | inhibition (inhibition, at 1 µM): -20%

COc1ccc2[nH]c3nc(SCC(=O)Nc4ccc5c(c4)OCO5)nnc3c2c1
inhibition (at 10 µM): 24.5% (inactive) | inhibition (inhibition, at 1 µM): 14.3%

O=C(NCc1nc2ccccc2[nH]1)C1=C[C@@H](c2csc3ccccc23)C[C@@H](OCCCCO)O1
inhibition (at 10 µM): 6.67% (inactive) | inhibition (inhibition, at 1 µM): -15%

Brc1cnc2nc(SCc3nc4ccccc4[nH]3)[nH]c2c1
inhibition (at 10 µM): -14.2% (inactive) | inhibition (inhibition, at 1 µM): -21.5%

CCO[C@@H]1OC(C(=O)NCc2nc3ccccc3[nH]2)=C[C@H](c2ccc(Br)cc2)[C@H]1CCCO
inhibition (at 10 µM): -6.53% (inactive) | inhibition (inhibition, at 1 µM): -4.89%

O=C(NCc1nc2ccccc2[nH]1)C1=C[C@H](c2ccc(Br)cc2)C[C@H](OCCCCO)O1
inhibition (at 10 µM): -2.4% (inactive) | inhibition (inhibition, at 1 µM): -6.37%

O=C(N/C(=C\c1cccnc1)c1nc2ccccc2[nH]1)c1cccc(Br)c1
inhibition (at 10 µM): 4.89% (inactive) | inhibition (inhibition, at 1 µM): -19.7%

O=C(CC(=O)Nc1cccc(Cl)c1)NN=Cc1ccccc1
inhibition (at 10 µM): 9.82% (inactive) | inhibition (inhibition, at 1 µM): -18.3%

CC(CC(=O)Nc1cccc(Br)c1)=NNC(=O)c1ccc(O)cc1O
inhibition (at 10 µM): 4.55% (inactive) | inhibition (inhibition, at 1 µM): -24.6%

O=C(CC=NOCc1ccc([N+](=O)[O-])cc1)Nc1ccc(Cl)cc1
inhibition (at 10 µM): 1.47% (inactive) | inhibition (inhibition, at 1 µM): -13%

O=C(NCc1nc2ccccc2[nH]1)C1=C[C@H](c2ccccc2)C[C@H](OCc2ccc(CO)cc2)O1
inhibition (at 10 µM): 12.7% (inactive) | inhibition (inhibition, at 1 µM): -8.08%

COc1ccc(CNC(=O)CSc2nnc3c(n2)[nH]c2ccc(F)cc23)cc1
inhibition (at 10 µM): -12% (inactive) | inhibition (inhibition, at 1 µM): -29.7%

O=C(CC=NOCc1ccc([N+](=O)[O-])cc1)Nc1ccc(Br)cc1
inhibition (at 10 µM): -6.71% (inactive) | inhibition (inhibition, at 1 µM): -22.4%

O=C(NCc1nc2ccccc2[nH]1)C1=C[C@H](c2csc3ccccc23)C[C@H](OCCCCO)O1
inhibition (at 10 µM): 2.21% (inactive) | inhibition (inhibition, at 1 µM): -9.21%

O=C1[C@@H]2Cc3c([nH]c4ccccc34)C(c3cccc([N+](=O)[O-])c3)N2C(=O)CN1CCCO (stereo partly drawn)
inhibition (at 10 µM): 4.46% (inactive) | inhibition (inhibition, at 1 µM): -17.4%

C[C@H](O)[C@@H]1C(=O)N2CCc3c([nH]c4ccccc34)[C@@H]2C[C@@H]1N(C)Cc1ccc2c(c1)OCO2
inhibition (at 10 µM): 24.8% (inactive) | inhibition (inhibition, at 1 µM): -17.7%
